Test results as given in the OPERA property sets (Mansouri et al. 2018).

settings: not given

SMILES	melting point	boiling point	log10 vapour pressure (mmHg)	log10 Koc (L/kg)	ready biodegradability	log10 Henry constant (atm·m³/mol)	log10 biodegradation half-life (days)	log10 Koa
N#Cc1cc(I)c([O-])c(I)c1.[Na+]	360 °C	–	–	–	–	–	–	–
CCCCCc1ccc(O)cc1O	72.5 °C	–	–	–	–	–	–	–
C=C(Br)CC	-133 °C	88 °C	–	–	–	–	–	–
COC(=O)c1cccc2ccccc12	59.5 °C	–	–	–	–	–	–	–
C[Si](C)(C)O[Si](C)(C)O[Si](C)(C)O[Si](C)(C)O[Si](C)(C)O[Si](C)(C)O[Si](C)(C)C	-78 °C	270 °C	-2.5	–	–	–	–	–
CN(C)c1ccc(N=NS(=O)(=O)O)cc1	–	–	–	1.18	–	–	–	–
CCC(Br)C(=O)OC (stereo not drawn)	–	168 °C	–	–	–	–	–	–
CC(=O)Cc1c[nH]c2ccccc12	116 °C	–	–	–	–	–	–	–
CCOC(=O)C(O)c1ccccc1 (stereo not drawn)	35 °C	–	–	–	–	–	–	–
Cc1cnc(C)[nH]1	92 °C	267 °C	–	–	–	–	–	–
Cc1ccc(CCO)cc1	–	244 °C	–	–	–	–	–	–
O=C(O)c1ccc(NS(=O)(=O)Cc2ccccc2)cc1	230 °C	–	–	–	–	–	–	–
CCCCCCCC(=O)OCCCCC	-34.8 °C	260 °C	–	–	–	–	–	–
CCCB(CCC)CCC	-56 °C	159 °C	–	–	–	–	–	–
O=C1C(F)=C(F)C(=O)C(F)=C1F	184 °C	–	–	–	–	–	–	–
O=C(Cl)c1ccc(Br)cc1	42 °C	246 °C	–	–	–	–	–	–
CCCNc1c([N+](=O)[O-])cc(C(F)(F)F)cc1[N+](=O)[O-]	–	–	–	3.61	–	–	–	–
CCCCC(CC)(CO)CO	43.8 °C	262 °C	-4	–	not readily biodegradable	–	–	–
CC1(c2ccc(Oc3ccccc3)cc2)OC(=O)N(Nc2ccccc2)C1=O (stereo not drawn)	141 °C	–	-8.32	–	–	–	–	–
CCCCCCCCCCCC(=O)[O][Na]	–	–	–	–	readily biodegradable	–	–	–
CCOC(=O)c1ccc(C(=O)OCC)cc1	44 °C	302 °C	–	–	–	–	–	–
C[Si](C)(C)CC(=O)O	41 °C	–	–	–	–	–	–	–
CCCCCCCCCCCCCCCCCC(=O)OCCO	60.5 °C	–	–	–	–	–	–	–
CC(CCCC(=O)O)C(=O)O (stereo not drawn)	64 °C	–	–	–	–	–	–	–
C=CC1(C)OC(=O)N(c2cc(Cl)cc(Cl)c2)C1=O (stereo not drawn)	108 °C	–	-6.92	2.7	–	–	–	–

SMILES	melting point	boiling point	log10 vapour pressure (mmHg)	log10 Koc (L/kg)	ready biodegradability	log10 Henry constant (atm·m³/mol)	log10 biodegradation half-life (days)	log10 Koa
NS(=O)(=O)c1ccc(CCCCCO)cc1	86 °C	–	–	–	–	–	–	–
CCC(C)C(=O)C(C)CC (stereo not drawn)	–	162 °C	–	–	–	–	–	–
Brc1ccc(Oc2ccccc2)cc1	18.7 °C	310 °C	-2.82	4.23	–	–	–	–
OCc1ccc2c(c1)OCO2	58 °C	–	–	–	–	–	–	–
O=C(O)c1ccsc1	138 °C	–	–	–	–	–	–	–
O=C(O)[C@H]1CC=CCC1	17 °C	234 °C	–	–	–	–	–	–
COP(=O)(OC)O/C(C)=C/C(=O)OC(C)c1ccccc1 (stereo not drawn)	–	–	-4.85	2	–	–	–	–
CC(C)CCCO	–	152 °C	–	–	–	–	–	–
IC(I)(I)I	171 °C	–	–	–	–	–	–	–
NNC(=O)NN	154 °C	–	–	–	–	–	–	–
O/N=C\c1ccccc1	36.5 °C	200 °C	–	–	–	–	–	–
O=C(O)C(Cl)Cl	13.5 °C	194 °C	-0.748	–	readily biodegradable	-8.08	–	–
Clc1ccc2cc[nH]c2c1	90 °C	–	–	–	–	–	–	–
CCOP(=O)(NC(C)C)Oc1ccc(S(C)=O)c(C)c1 (stereo not drawn)	–	–	–	1.57	–	–	–	–
Fc1cc(F)c(F)c(-c2c(F)c(F)cc(F)c2F)c1F	85 °C	–	–	–	–	–	–	–
O=S(=O)(O)C(F)(F)F	–	166 °C	-1	–	–	–	–	–
CCOP(=S)(OCC)SCSC(C)(C)C	-29.2 °C	–	-3.49	2.82	–	–	–	–
COC(=O)c1ccncc1	16.1 °C	208 °C	–	–	–	–	–	–
C[C@@H]1C[C@H](N(C)C)[C@@H](O)[C@H](O[C@H]2[C@@H](C)C[C@@H](C)C(=O)C=C[C@@H](C)[C@@H]([C@@H](C)O)OC(=O)[C@@H]2C)O1	157 °C	–	–	–	–	–	–	–
CC(=O)c1ccccc1[N+](=O)[O-]	28.5 °C	–	–	–	–	–	–	–
C#CC(C)(C)NC(=O)c1ccc(Cl)cc1	–	–	–	1.9	–	–	–	–
N#CC(O)c1ccccc1 (stereo not drawn)	-10 °C	–	–	–	–	–	–	–
CCC(CC)c1ccncc1	126 °C	217 °C	–	–	–	–	–	–
C[C@@H]1CC[C@H](C)c2ccccc21	–	226 °C	–	–	–	–	–	–
CC(CNC(=O)c1ccccc1)C(=O)OCC(=O)[C@@]12OC(C)(C)O[C@@H]1C[C@H]1[C@@H]3CCC4=CC(=O)C=C[C@]4(C)[C@@]3(F)[C@@H](O)C[C@@]12C (stereo partly drawn)	205 °C	–	–	–	–	–	–	–

SMILES	melting point	boiling point	log10 vapour pressure (mmHg)	log10 Koc (L/kg)	ready biodegradability	log10 Henry constant (atm·m³/mol)	log10 biodegradation half-life (days)	log10 Koa
O=C(c1ccccc1)N1CCCCC1	49 °C	320 °C	–	–	–	–	–	–
O=C1CCCCCCCCCCCN1	152 °C	–	–	–	not readily biodegradable	–	–	–
O=C(O)c1nc(Cl)ccc1Cl	151 °C	–	-4.92	1.56	–	–	–	–
COC(=O)CCC(=O)OC	19 °C	196 °C	-0.387	–	readily biodegradable	–	–	–
CCCCCCCCCCCCCCCC(CCCC)c1ccccc1 (stereo not drawn)	30.2 °C	–	–	–	–	–	–	–
Cc1ccc(N)c(S(=O)(=O)O)c1	–	–	–	–	not readily biodegradable	–	–	–
O=C1c2ccccc2C(=O)C1(CN1CCOCC1)c1ccccc1	88 °C	–	–	–	–	–	–	–
CN(C)C(=S)N(C)C	79.3 °C	245 °C	–	–	–	–	–	–
CCCCCCCCCCBr	-29.2 °C	241 °C	-1.4	–	–	–	–	–
C#CCOc1ccc(N)cc1C(=O)NCCCC	84 °C	–	–	–	–	–	–	–
CCC(c1ccc2cc(OC)ccc2c1)C(C)(C)C(=O)O (stereo not drawn)	140 °C	–	–	–	–	–	–	–
C=CCl	-154 °C	-13.3 °C	3.47	–	–	-1.56	–	–
CC1CCCc2ccccc21 (stereo not drawn)	–	221 °C	–	–	–	–	–	–
Nc1cc(Cl)ccc1Cl	50 °C	251 °C	–	–	not readily biodegradable	–	–	–
CC(C)(C)NCCO	44 °C	176 °C	–	–	not readily biodegradable	–	–	–
O=Cc1ccccc1Cl	12.4 °C	212 °C	-0.638	–	not readily biodegradable	–	–	–
O=C(CO)[C@@H](O)[C@@H](O)[C@H](O)[C@H](O)CO	151 °C	–	–	–	–	–	–	–
CCSc1cccc(C)c1	–	219 °C	–	–	–	–	–	–
Clc1cccnc1	–	148 °C	–	–	–	–	–	–
CCCCC(CC)C(=O)O (stereo not drawn)	–	228 °C	-1.52	–	–	–	–	–
CCC1C=CCC1 (stereo not drawn)	–	97.8 °C	–	–	–	–	–	–
CCCCCCCCCCC	-25.6 °C	196 °C	-0.385	–	readily biodegradable	–	0.845	–
COc1cc(Cl)ccc1O	16.5 °C	241 °C	–	–	–	–	–	–
CCOC(CN(C)C)OCC	–	170 °C	–	–	–	–	–	–
S=C(SN1CCOCC1)N1CCOCC1	139 °C	–	–	–	–	–	–	–

SMILES	melting point	boiling point	log10 vapour pressure (mmHg)	log10 Koc (L/kg)	ready biodegradability	log10 Henry constant (atm·m³/mol)	log10 biodegradation half-life (days)	log10 Koa
O=C(Cl)C(Cl)(Cl)Cl	–	118 °C	1.33	–	–	-3.29	–	–
NC(=O)NCCCC(N)C(=O)O (stereo in doubt)	236 °C	–	–	–	–	–	–	–
CCCCC[Si](Cl)(Cl)Cl	–	172 °C	–	–	–	–	–	–
COc1ccc(-c2ccccc2)cc1NNC(=O)OC(C)C	122 °C	–	–	–	–	–	–	–
CCCCCCC(=O)OCC(C)C	–	208 °C	–	–	–	–	–	–
Cc1nnc(-c2ccccc2)c(=O)n1N	–	–	-8.19	2.17	–	–	–	–
c1csc(-c2cccs2)c1	33 °C	260 °C	–	–	–	–	–	–
c1cc2c3c(c1)ccc1cccc(c13)C2	114 °C	353 °C	–	–	–	–	–	–
CC(=O)[C@@]1(O)CC[C@H]2[C@@H]3C[C@H](C)C4=CC(=O)C=C[C@]4(C)[C@@]3(F)[C@@H](O)C[C@@]21C	297 °C	–	–	–	–	–	–	–
Nc1ccc(/N=N/c2ccc(S(N)(=O)=O)cc2)c(N)c1	250 °C	–	–	–	–	–	–	–
Clc1cc2oc3c(Cl)c(Cl)c(Cl)c(Cl)c3c2c(Cl)c1Cl	–	–	–	–	–	–	–	11.4
CC(C)(C)CC(=O)OCC(=O)[C@@]12OC(C)(C)O[C@@H]1C[C@H]1[C@@H]3CCC4=CC(=O)C=C[C@]4(C)[C@@]3(F)[C@@H](O)C[C@@]12C	295 °C	–	–	–	–	–	–	–
Clc1cc(Cl)c2oc3c(Cl)c(Cl)cc(Cl)c3c2c1	204 °C	–	–	–	–	–	–	–
C=COCCOCCOC=C	–	198 °C	-1.64	–	–	–	–	–
CCCC(CC)CC	–	119 °C	1.3	–	–	–	0.602	–
CC=CCCC=CC	-76 °C	124 °C	–	–	–	–	–	–
C=CCSSSC	–	–	-1.3	–	–	–	–	–
N#Cc1ccccc1N	51 °C	263 °C	–	–	–	–	–	–
O=C(Cc1ccccc1)c1ccccc1	60 °C	320 °C	-3.74	–	–	–	–	–
CCCCCCCC(=O)OCCCC	-42.9 °C	240 °C	–	–	–	–	–	–
C=C(C)[C@H](C)O	–	114 °C	–	–	–	–	–	–
CC(C)CC(C)(C#N)N=NC(C)(C#N)CC(C)C (stereo not drawn)	–	–	–	–	not readily biodegradable	–	–	–
CC(C)CCC(CO)C(C)C (stereo not drawn)	–	211 °C	–	–	–	–	–	–
CCCCCCCCCCCCCCCC[n+]1ccccc1.[Br-]	63 °C	–	–	–	–	–	–	–
COCC(=O)c1ccccc1	8 °C	245 °C	–	–	–	–	–	–

SMILES	melting point	boiling point	log10 vapour pressure (mmHg)	log10 Koc (L/kg)	ready biodegradability	log10 Henry constant (atm·m³/mol)	log10 biodegradation half-life (days)	log10 Koa
CCC(=O)Oc1ccccc1	20 °C	211 °C	–	–	–	–	–	–
Nc1nc2c(ncn2COCCO)c(=O)[nH]1	255 °C	–	–	–	–	–	–	–
C=CCOCC=C	-6 °C	94 °C	–	–	–	–	–	–
CN(C)C(=O)Oc1ccc[n+](C)c1.[Br-]	153 °C	–	–	–	–	–	–	–
COC(N)=O	54 °C	177 °C	–	–	–	–	–	–
C1=CCSC1	–	122 °C	–	–	–	–	–	–
C=C(C)C1CC=C(C)C(=O)C1 (stereo not drawn)	–	230 °C	–	–	–	–	–	–
O=C1CCCCCCCCCCC(=O)OCCO1	18 °C	–	–	–	–	–	–	–
O=S(=O)(O)C(F)(F)C(F)(F)C(F)(F)C(F)(F)C(F)(F)F	–	225 °C	–	–	–	–	–	–
CCCC(C)(O)CC(C)C (stereo not drawn)	–	171 °C	–	–	–	–	–	–
C=Cc1ccc(F)cc1	-34.5 °C	–	–	–	–	–	–	–
CN(C)c1cccc2ccccc12	–	280 °C	–	–	–	–	–	–
Oc1cccc2sccc12	79.8 °C	–	–	–	–	–	–	–
CCC(O)(CC)CC	-12.5 °C	142 °C	–	–	–	–	–	–
NCCCCCCN	41.5 °C	205 °C	-0.928	–	readily biodegradable	–	–	–
O=C(c1ccc(O)cc1)c1ccc(O)cc1	210 °C	–	–	–	–	–	–	–
ClC(Br)(Br)Br	55 °C	158 °C	–	–	–	–	–	–
C=C(C)[C@H]1Cc2c(ccc3c2O[C@@H]2COc4cc(OC)c(OC)cc4[C@@H]2C3=O)O1	176 °C	–	–	4	–	–	–	–
CCC(C)C1(CC)C(=O)NC(=O)NC1=O (stereo not drawn)	166 °C	–	–	–	–	–	–	–
c1cncc(-c2cccnc2)c1	68 °C	292 °C	–	–	–	–	–	–
Cc1ccc2c(C)c(C)ccc2c1	14 °C	–	–	–	–	–	–	–
CC(C)=CC(=O)O	69.5 °C	197 °C	–	–	–	–	–	–
CCc1ccc[nH]1	–	164 °C	–	–	–	–	–	–
C=CCOC(=O)/C=C\C(=O)OCC=C	–	–	-2.17	–	–	–	–	–

same assay, conditions: fish

SMILES	log10 BCF	log10 biotransformation half-life (days)
O=C1CCCCCCCCCCCN1	0.41	–
Clc1ccc2c(c1)oc1c(Cl)cccc12	–	0.58
Cc1ccc(N)c(S(=O)(=O)O)c1	0.6	–
Nc1cc(Cl)ccc1Cl	1.18	-1.13
c1ccc2cc3c(ccc4c5ccccc5ccc34)cc2c1	–	0.58
C=C(C)CCCCCCCCCCC	–	0.73
C=C(C)[C@H]1Cc2c(ccc3c2O[C@@H]2COc4cc(OC)c(OC)cc4[C@@H]2C3=O)O1	1.41	-0.59
